One experiment has as its system p62. Nature of the experiment: western blot detection of p62 (a protein degraded by autophagy). It is filed as cell-based. As to conditions: 10 micomolar peptide, compared to 10 micomolar Tat-Beclin 1 compound. As for the experimental part:
(§1) To further assess the components of the beclin1 peptide required for autophagy-inducing activity, a series of shorter peptides were developed. Activity was measured by biochemical autophagy assays including western blot detection of p62 (a protein degraded by autophagy) and western blot detection of the conversion of LC3-I into LC3-II (the lipidated autophagosome-associated form of LC3).

In a further experiment the test system is LC3. Nature of the experiment: western blot detection of the conversion of LC3-I into LC3-II. It is filed as cell-based. To be noted: 10 micomolar peptide, compared to 10 micomolar Tat-Beclin 1 compound. The method, then: as §1
On the technique in general: A western blot detects proteins with antibodies after separation by electrophoresis.

No end group written: not given here.

On to “Tat-GG-VFNATFEIWHD (Tat-GGVFNATFEIWHD) [tat protein transduction domain linked through a diglycine linker to Beclin 1 residues 269-279 with H275E and S279D]”, for which the p62 degradation result with p62 is given as “increased p62 degradation”. Besides, the LC3-II conversion entry with LC3 was “increased LC3-II conversion”.

For the origin of these results see US8802633B1, “Autophagy-inducing peptide analogs” (Board of Regents, The University of Texas System, priority 2013, dated 2014).
